# Results taken from patent US20220249597A1, “MIF INHIBITORS AND METHODS OF USE THEREOF” (The Johns Hopkins University, priority 2016, published 2022).
# Legend:
# HeLa cells [1] = test: Pulse-field gel electrophoresis assay of MNNG-induced DNA damage in HeLa cells; format: cell-based, human; settings: DPQ 30 μM; ISO-1 100 μM
# Description: FIGS. 2A-2D. FIG. 2. MIF is a novel nuclease that cleaves genomic DNA.
# cortical neurons = settings: N-Arg 100 μM
# Method: (H-J) Nuclear translocation of AIF and MIF after NMDA treatment in the presence or absence PARP inhibitor DPQ or nNOS inhibitor nitro-arginine (N-Arg, 100 μM) in cortical neurons, which was determined by subcellular fractionation. Intensity of MIF and AIF signal is shown in I & J. The experiments were replicated in three independent trials. The experiments were replicated in three independent trials. ***P<0.001, one-way ANOVA.
# Primary neuronal cultures from cortex were prepared as previously described (9). Briefly, the cortex was dissected and the cells were dissociated by trituration in modified Eagle's medium (MEM), 20% horse serum, 30 mM glucose, and 2 mM L-glutamine after a 10-min digestion in 0.027% trypsin/saline solution (Gibco-BRL). The neurons were plated on 15-mm multiwell plates coated with polyornithine or on coverslips coated with polyornithine. Neurons were maintained in MEM, 10% horse serum, 30 mM glucose, and 2 mM L-glutamine in a 7% CO2 humidified 37° C. incubator. The growth medium was replaced twice per week. In mature cultures, neurons represent 70 to 90% of the total number of cells. […] Parthanatos was induced by either MNNG (Sigma) in HeLa cells or NMDA (Sigma) in neurons. […]
# HeLa cells [2] = format: cell-based, human; settings: DPQ 30 μM
# Method: FIGS. 21A-21J. FIG. 21. […] Scale bar, 20 μm.
# For immunocytochemistry, cells were fixed 4 hours after MNNG or NMDA treatment with 4% paraformaldehyde, permeabilized with 0.05% Triton X-100, and blocked with 3% BSA in PBS. AIF was visualized by Donkey anti-Rabbit Cy3 or donkey anti-rabbit 647. MIF was visualized by donkey anti-mouse cy2 (2 μg/ml), donkey anti-goat Cy2 or donkey anti-goat 647. Immunohistochemistry was performed with an antibody against Flag. Immunofluorescence analysis was carried out with an LSM710 confocal laser scanning microscope (Carl Zeiss) as described (9).
smiles,measurement,setting,value
"O=C1NCCc2c(OCCCCN3CCCCC3)cccc21 [DPQ, 3,4-dihydro-5[4-(1-piperindinyl)butoxy]-1(2H)-isoquinoline]",Effect on MNNG induced DNA damage / DNA cleavage,HeLa cells [1],prevents MNNG induced DNA cleavage
same,Accumulation of MIF and AIF in the nucleus after NMDA administration,cortical neurons,prevents accumulation of both MIF and AIF in the nucleus
same,Accumulation of MIF and AIF in the nucleus after MNNG treatment,HeLa cells [2],prevents accumulation of both MIF and AIF in the nucleus
